Test results published in PMC9959553, “Promising Antifungal Molecules against Mucormycosis Agents Identified from Pandemic Response Box®: In Vitro and In Silico Analyses” (Journal of Fungi, 2023).

What follows are molecules tested on R. oryzae UCP1295 (assay: Screening of the Pandemic Response Box library at 5 µM). Conditions: 48 h, Table S1, mean of the four values.
Format: cell-based, Rhizopus oryzae
Outline: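 Compounds at 5 μM in RPMI 1640 with 2% glucose and MOPS (0.165 mol/L, pH 7.2), with conidia at 2 × 10^5/mL, incubated 48 h at 37 °C in 5% CO2. Growth read by OD at 600 nm; hits defined as ≥60% inhibition. Posaconazole (5 μM) and 1% DMSO as controls.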
`COc1cc(NS(=O)(=O)c2ccc(C)cc2)c2ncccc2c1` [MMV098836] was tested, and the “% of growth inhibition, Mean” value was 48.1%.
In the case of `C[C@H]1CC[C@@]2(O)C(C)(C)[C@@H]3CC[C@@]2(C)[C@H]1C3` [MMV1578556], the “% of growth inhibition, Mean” value is reported as -4.8%.
In the case of `O=c1cc(OCc2ccccc2)ccn1Cc1ccccc1` [MMV1579775], the “% of growth inhibition, Mean” value is reported as -7.1%.
With `CC[C@@H]1C(=O)OC[C@@H]1Cc1cncn1C.Cl` [MMV002516] the “% of growth inhibition, Mean” value was -16.1%.
With `OCCC#Cc1nc(-c2ccc(F)cc2)c(-c2ccncc2)n1CCCc1ccccc1` [MMV1580797] the “% of growth inhibition, Mean” value was -16.9%.
With `CC(C)C(=O)N[C@H]1[C@H]([C@H](O)[C@H](O)CO)OC(C(=O)O)=C[C@@H]1N=[N+]=[N-]` [MMV1782111] the “% of growth inhibition, Mean” value was -12.9%.
For `O=C(/C(=C/c1ccc(Cl)cc1Cl)n1ccnc1)c1ccc(Cl)cc1` [MMV1634491], the “% of growth inhibition, Mean” value was -15.1%.
For `CCN(CC)S(=O)(=O)c1ccc(Cl)c(C(=O)Nc2sc3c(c2C#N)CCCC3)c1` [MMV1634384], the “% of growth inhibition, Mean” value was -5.0%.
In the case of `CS(=O)(=O)c1ccc(Oc2ccc(Cl)cc2)cc1` [MMV1634404], the “% of growth inhibition, Mean” value is reported as 4.1%.
In the case of `C[C@H]1CC[C@]2(NC1)O[C@H]1C[C@H]3[C@@H]4CC[C@H]5C[C@@H](O)CC[C@]5(C)[C@H]4CC[C@]3(C)[C@H]1[C@@H]2C.Cl` [MMV003069], the “% of growth inhibition, Mean” value is reported as -12.1%.
In the case of `C(=C\c1nc2ccccc2[nH]1)/c1ccc2c(c1)OCO2` [MMV1582495], the “% of growth inhibition, Mean” value is reported as -6.2%.
`COc1ccc(C)cc1NC(=O)c1ccc(S(=O)(=O)N2CCCCC2)cc1` [MMV1578579] was tested, and the “% of growth inhibition, Mean” value was -3.3%.
For `NCC(=O)Nc1ccc(-n2nc(C(F)(F)F)cc2-c2ccc3c(ccc4ccccc43)c2)cc1` [MMV1578560], the “% of growth inhibition, Mean” value was -14.6%.
For `N[C@H](CCC(=O)N[C@@H](Cc1c[nH]c2ccccc12)C(=O)O)C(=O)O` [MMV1581033], the “% of growth inhibition, Mean” value was 2.8%.
In the case of `CCc1nc2ccc(Cl)cn2c1C(=O)NCc1ccc(N2CCC(c3ccc(OC(F)(F)F)cc3)CC2)cc1` [MMV687696], the “% of growth inhibition, Mean” value is reported as -33.4%.
`COc1ccc(C(C)(C)C)cc1NC(=O)C(=O)c1ccc(OCCN2CCOCC2)c2ccccc12` [MMV1782209] was tested, and the “% of growth inhibition, Mean” value was -5.8%.
For `CCCC1(C2CC2)c2cc(Cl)ccc2NC(=O)N1C` (centres unmarked) [MMV1782113], the “% of growth inhibition, Mean” value was -5.2%.
In the case of `Clc1ccc(Cn2c(CN3CCCC3)nc3ccccc32)cc1` [MMV002015], the “% of growth inhibition, Mean” value is reported as -4.7%.
For `NS(=O)(=O)c1ccc(NC(=O)NC(c2ccccc2)c2ccccc2)cc1` [MMV1579776], the “% of growth inhibition, Mean” value was -24.2%.
`CC[C@@]1(O)C(=O)OCc2c1cc1n(c2=O)Cc2cc3c([N+](=O)[O-])cccc3nc2-1` [MMV1580796] was tested, and the “% of growth inhibition, Mean” value was -1.7%.
`O=C(Nc1ccc(-c2ccccc2)cc1)C1=C(O)C(Cc2ccccc2)OC1=O` (centres unmarked) [MMV1593531] was tested, and the “% of growth inhibition, Mean” value was -29.2%.
With `O=S(=O)(Nc1ccc(O)cc1)c1cccc2cccnc12` [MMV251679] the “% of growth inhibition, Mean” value was -4.7%.
In the case of `CC(C)c1ccc(COc2cccc(-c3cc([S+](C)[O-])c(C#N)c(=O)[nH]3)c2)cc1` (centres unmarked) [MMV1582497], the “% of growth inhibition, Mean” value is reported as -17.1%.
For `Nc1nc(O)c(Br)c(-c2cccc(Cl)c2)n1` [MMV1645152], the “% of growth inhibition, Mean” value was 4.7%.
In the case of `[N-]=[N+]=N[C@H]1C[C@H](n2ccc(=O)[nH]c2=O)O[C@@H]1CO` [MMV1593520], the “% of growth inhibition, Mean” value is reported as 4.5%.
For `CCC[C@@H]1C[C@@H](C(=O)N[C@@H]([C@H]2O[C@H](SC)[C@H](O)[C@@H](O)[C@H]2O)[C@H](C)Cl)N(C)C1.Cl` [MMV000051], the “% of growth inhibition, Mean” value was -29.6%.
In the case of `C[C@H](Cn1cnc2c(N)ncnc21)OCP(=O)(O)O` [MMV1580478], the “% of growth inhibition, Mean” value is reported as -19.5%.
With `O=C(c1ccc(F)cc1)N1CCN2C(=O)c3ccccc3C12c1ccccc1` (centres unmarked) [MMV1165877] the “% of growth inhibition, Mean” value was -2.4%.
In the case of `COc1c(NC(=O)[C@H]2CC[C@@H](COc3ccc([N+](=O)[O-])cc3)CC2)c(F)cc2c(=O)c(C(=O)O)cn(C3CC3)c12` [MMV1633965], the “% of growth inhibition, Mean” value is reported as -11.6%.
In the case of `Nc1nc2c(ncn2COCCO)c(=O)[nH]1` [MMV001961], the “% of growth inhibition, Mean” value is reported as -10.2%.
In the case of `Nc1nnc(-c2ccc(Cl)cc2)s1` [MMV046261], the “% of growth inhibition, Mean” value is reported as -8.7%.
For `Cc1c(N)cccc1Cn1ccc(OCCc2cccs2)cc1=O` [MMV1578557], the “% of growth inhibition, Mean” value was -5.6%.
For `CCCNc1ccc(S(=O)(=O)Nc2cc(C)on2)cc1` [MMV1782216], the “% of growth inhibition, Mean” value was -18.8%.
In the case of `Nc1nnnn1CCOc1c2[nH]c3ccc(Cl)cc3c2cc2c1[nH]c1ccc(Cl)cc12` [MMV1633966], the “% of growth inhibition, Mean” value is reported as -30.2%.
`C[C@@H](O)[C@H](N)C(=O)NS(=O)(=O)c1cccc(-c2ccc3[nH]ncc3c2)c1.Cl.Cl` [MMV1582494] was tested, and the “% of growth inhibition, Mean” value was -14.6%.
`COc1ccccc1CN[C@H]1C2CCN(CC2)[C@H]1C(c1ccccc1)c1ccccc1` [MMV690480] was tested, and the “% of growth inhibition, Mean” value was -1.8%.
For `C[C@@]1(O)[C@H](O)[C@@H](CO)O[C@H]1n1ccc2c(N)ncnc21` [MMV1593519], the “% of growth inhibition, Mean” value was 10.3%.
`CCOC(=O)N1CCN(c2ccc(Cl)cc2)CC1` [MMV1578898] was tested, and the “% of growth inhibition, Mean” value was 0.3%.
`O=C1[C@H](CC[C@H](O)c2ccc(F)cc2)[C@@H](c2ccc(O)cc2)N1c1ccc(F)cc1` [MMV1581377] was tested, and the “% of growth inhibition, Mean” value was 3.5%.
With `Oc1ccc2[nH]c(-c3ccccc3)nc2c1` [MMV292173] the “% of growth inhibition, Mean” value was -15.4%.
With `CC(C)(C)OC(=O)NCc1ccc(C(=O)N[C@H]2CCOC2=O)cc1` [MMV1581547] the “% of growth inhibition, Mean” value was -3.1%.
With `CCC(CC)[C@H](NC(C)=O)[C@@H]1[C@H](O)[C@@H](C(=O)O)C[C@H]1NC(=N)N` [MMV1593511] the “% of growth inhibition, Mean” value was 1.4%.
`COc1cc(Cc2cnc(N)nc2N)c2c(c1OC)OC(C1CC1)C=C2` (centres unmarked) [MMV1613563] was tested, and the “% of growth inhibition, Mean” value was -6.9%.
In the case of `O=C(O)c1cc(-c2ccc(Br)cc2)nc2ccc(Cl)cc12` [MMV247764], the “% of growth inhibition, Mean” value is reported as -8.6%.
`CN(O)C(=O)c1cc2c(CN3CCC[C@H]3C(N)=O)cn(Cc3ccc(F)cc3)c2cn1` [MMV1782386] was tested, and the “% of growth inhibition, Mean” value was -4.5%.
In the case of `CC(C)Nc1nc2cc(Cl)c(Cl)cc2n1[C@H]1O[C@@H](CO)[C@H](O)[C@@H]1O` [MMV1593521], the “% of growth inhibition, Mean” value is reported as -13.4%.
`O=C(O)C[C@H]1CC[C@H](c2ccc(-c3ccc(Nc4ccc(C(F)(F)F)nc4)cn3)cc2)CC1` [MMV1580498] was tested, and the “% of growth inhibition, Mean” value was -26.7%.
For `O[C@@](Cn1cnnn1)(c1ccc(F)cc1F)C(F)(F)c1ccc(-c2ccc(OCC(F)(F)F)cc2)cn1` [MMV1634386], the “% of growth inhibition, Mean” value was -15.2%.
For `Cc1ccc(Oc2ccccc2-c2csc(N=C3NCCCN3)n2)c(C)c1` [MMV1634493], the “% of growth inhibition, Mean” value was -30.7%.
`O=C(O)CCNC(=O)c1ccccc1` [MMV002224] was tested, and the “% of growth inhibition, Mean” value was -6.2%.
